According to patent US20080063628A1, “METHODS TO PROMOTE CELL DIFFERENTIATION” (priority 2006, published 2008):

Assays:
[1] = tested on: amniotic fluid-derived cell line AFCA009-A; experiment: Trichostatin A 24 h time course, gene expression by Real-Time PCR (Example 2); assay type: cell-based, human; conditions: 1.25 μM
Experimental: Amniotic fluid derived cells were seeded into 24-well tissue culture plates at a density of 5000/cm^2 and cultured in AMNIOMAX medium (Invitrogen) under standard cell culture conditions until confluent. Cells were obtained according to methods described in Example 14. After reaching confluence, 1.25 μM trichostatin A diluted in DMSO and medium was added to sample wells; an equivalent concentration of DMSO was added to control wells as a no treatment control.
RNA samples were obtained from treated cultures at 30 minutes, 1.5 hours, 3 hours, 6 hours, 12 hours, and 24 hours following addition of trichostatin A or DMSO. Culture medium was removed, cells were washed with PBS, and RLT lysis buffer with β-mercaptoethanol (Qiagen) was added. RNA was purified using the RNeasy Mini Kit (Qiagen). RNA quantity and quality was determined using a spectrophotometer, and cDNA was made using the iScript cDNA synthesis kit (BioRad).
Expression levels of Sox17, HNF-3 beta, Pdx-1, insulin, and glucagon were determined by Real-Time PCR. Samples of 20 ng cDNA were used in each reaction, performed on the Applied Biosystems 7500 according to methods described in Example 15. Data analysis was performed using the accompanying software. Human pancreas cDNA was included as a positive control, and results were normalized against GAPDH expression levels.
Real-time PCR amplifcation and quantitative analysis. Unless otherwise stated, all reagents were purchased from Applied Biosystems. Real-time PCR reactions were performed using the ABI PRISM™ 7500 Sequence Detection System. TAQMAN™ FAST UNIVERSAL PCR MASTER MIX™ (ABI, CA) was used with 20 ng of reverse transcribed RNA in a total reaction volume of 20 μl. Each cDNA sample was run in duplicate to allow correction of pipetting errors. Primers and FAM-labeled TAQMAN™ probes were used at concentrations of 200 nM. The level of expression for each target gene was normalized using the pre-developed Applied Biosystem's human glyceraldehyde-3-phosphate dehydrogenase (GAPDH) endogenous control kit. Primers and probes were designed using either ABI PRISM PRIMER EXPRESS™ software or a pre-developed ABI gene analysis kit. For each gene, either one of the primers or the probe were designed to be exon-boundary spanning. This eliminated the possibility of the primers/probe binding to any genomic DNA present. The primer and probe sets are listed as follows: Pdx-1 (Hs00426216), Insulin (Hs00355773), glucagon (Hs00174967), and FoxA2 (HNF 3-beta) (Hs00232764). The remaining primers were designed using the PRIMERS program (ABI, CA). After an initial 95° C. incubation for 20 sec, samples were cycled 40 times in two stages: a denaturation step at 95° C. for 3 sec, followed by an annealing/extension step at 60° C. for 30 sec.
For each primer/probe set, a cycle time value was determined as the cycle number at which the fluorescence intensity of the PCR reaction reached a specific value in the middle of the exponential region of amplification. An increase in expression of a gene corresponded to a decrease in the number of cycles required for the fluorescence intensity to reach this value.

[2] = tested on: second amniotic fluid-derived cell line; experiment: Two sequential low dose trichostatin A treatments, gene expression by RT-PCR (Example 7); assay type: cell-based, human; conditions: 0.5 μM, after 72 hours, remainder of the experiment

`CC(/C=C/C(=O)NO)=C\[C@@H](C)C(=O)c1ccc(N(C)C)cc1` [trichostatin A] was tested, and the HNF-3 beta gene expression ([1]; 0.5 h) was “+ (detectable between 35 and 40 cycles by RT-PCR)”, the Insulin gene expression ([1]; 0.5 h) was “+ (detectable between 35 and 40 cycles by RT-PCR)” and the PDX-1 gene expression ([1]; 0.5 h) was “nd (not detectable at >40 cycles by RT-PCR)”. For the same compound, the Sox17 gene expression ([1]; 0.5 h) was “+++ (detectable at less than 35 cycles by RT-PCR with std error less than 0.9)”, the glucagon gene expression ([1]; 0.5 h) was “nd (not detectable at >40 cycles by RT-PCR)” and the “HNF-3 beta RT-PCR detection cycle” value ([1]; 30 minutes) was greater than 35 cycles. For the same compound, the HNF-3 beta gene expression ([1]; 1.5 h) was “+ (detectable between 35 and 40 cycles by RT-PCR)”, the Insulin gene expression ([1]; 1.5 h) was “+ (detectable between 35 and 40 cycles by RT-PCR)” and the PDX-1 gene expression ([1]; 1.5 h) was “nd (not detectable at >40 cycles by RT-PCR)”. The Sox17 gene expression ([1]; 1.5 h) was “+++ (detectable at less than 35 cycles by RT-PCR with std error less than 0.9)”, the glucagon gene expression ([1]; 1.5 h) was “nd (not detectable at >40 cycles by RT-PCR)” and the HNF-3 beta gene expression ([1]; 3 h) was “+++ (detectable at less than 35 cycles by RT-PCR with std error less than 0.9)”. The Insulin gene expression ([1]; 3 h) was “+ (detectable between 35 and 40 cycles by RT-PCR)”, the PDX-1 gene expression ([1]; 3 h) was “nd (not detectable at >40 cycles by RT-PCR)” and the Sox17 gene expression ([1]; 3 h) was “+++ (detectable at less than 35 cycles by RT-PCR with std error less than 0.9)”. The glucagon gene expression ([1]; 3 h) was “nd (not detectable at >40 cycles by RT-PCR)”, the HNF-3 beta gene expression ([1]; 6 h) was “+++ (detectable at less than 35 cycles by RT-PCR with std error less than 0.9)” and the Insulin gene expression ([1]; 6 h) was “nd (not detectable at >40 cycles by RT-PCR)”. The PDX-1 gene expression ([1]; 6 h) was “+ (detectable between 35 and 40 cycles by RT-PCR)”, the Sox17 gene expression ([1]; 6 h) was “+++ (detectable at less than 35 cycles by RT-PCR with std error less than 0.9)” and the glucagon gene expression ([1]; 6 h) was “nd (not detectable at >40 cycles by RT-PCR)”. The “Pdx-1 RT-PCR detection cycle” value ([1]; 6 hours) was greater than 35 cycles, the HNF-3 beta gene expression ([1]; 12 h) was “+++ (detectable at less than 35 cycles by RT-PCR with std error less than 0.9)” and the Insulin gene expression ([1]; 12 h) was “+ (detectable between 35 and 40 cycles by RT-PCR)”. For the same compound, the PDX-1 gene expression ([1]; 12 h) was “+++ (detectable at less than 35 cycles by RT-PCR with std error less than 0.9)”, the Sox17 gene expression ([1]; 12 h) was “+++ (detectable at less than 35 cycles by RT-PCR with std error less than 0.9)” and the glucagon gene expression ([1]; 12 h) was “+ (detectable between 35 and 40 cycles by RT-PCR)”. The “glucagon RT-PCR detection cycle” value ([1]; 12 hours) was greater than 35 cycles, the HNF-3 beta gene expression ([1]; 24 h) was “+++ (detectable at less than 35 cycles by RT-PCR with std error less than 0.9)” and the Insulin gene expression ([1]; 24 h) was “+ (detectable between 35 and 40 cycles by RT-PCR)”. The PDX-1 gene expression ([1]; 24 h) was “+++ (detectable at less than 35 cycles by RT-PCR with std error less than 0.9)”, the Sox17 gene expression ([1]; 24 h) was “+++ (detectable at less than 35 cycles by RT-PCR with std error less than 0.9)” and the glucagon gene expression ([1]; 24 h) was “+++ (detectable at less than 35 cycles by RT-PCR with std error less than 0.9)”. For the same compound, the “HNF-3 beta RT-PCR detection cycle” value ([1]; 24 hours) was less than 35 cycles, the “Pdx-1 RT-PCR detection cycle” value ([1]; 24 hours) was less than 35 cycles and the “Pdx-1 gene expression relative to human pancreas” value ([1]; 24 hours) was ~0.1 % of human pancreas levels. For the same compound, the “glucagon RT-PCR detection cycle” value ([1]; 24 hours) was less than 24 cycles and the “HNF-3 beta RT-PCR detection cycle” value [2] was 37 cycles.
